The test system of series [1] is Reconstructed human epidermis (RHE) tissues. The series is described as follows: RT-qPCR gene expression of K10, K19, filaggrin, K4 and K13 in reconstructed human epidermis (RHE) cultures. In kind it is cell-based. Conditions: 72 h, 2.83 mM in OD/10% DMSO, 6 μl. As to the method: Reconstructed human epidermis (RHE) tissues were cultured in-house as previously described by Poumay et al. Briefly, polycarbonate culture inserts (12 mm diameter and 0.4 μm pore size, Millipore) were filled with 150 μL of a suspension containing approximately 5×10^5 primary adult human keratinocytes. The inserts received another 500 μL of keratinocyte culture media and were placed in a 6-well plate (1 insert/well) containing 2.5 mL of RHE Growth Media (Epilife media +1.5 mM CaCl2). RHE cultures were incubated at 37° C. in a humidified atmosphere containing 5% CO2, for 24 hours. Subsequently (on Day 0), RHE cultures were exposed to the air-liquid interface by removing the RHE Growth Media from the top of the cultures, and replacing with 1.5 mL/well of RHE Growth Media containing 50 μg/mL vitamin C. Media was changed every other day until the cultures were dosed with Test Articles. A stock solution of 0.1% tazarotene (2.83 mM at 99.5% purity) in OD/10% DMSO was prepared. For tazarotene benzoate, hydroxytazarotenic acid, keto tazarotenic acid, keto tazarotene, and tazarotene nicotinate, a 10 mg/mL stock solution (in DMSO) was already prepared. From this stock solution, a 2.83 mM working solution (in octyldodecanol) was prepared. All other tested compounds were resuspended in DMSO and OD to obtain a final concentration of 2.83 mM in OD/10% DMSO. On Day 12, the cultures were placed in 60 mm petri dishes containing 3 mL of RHE Growth Media (+VitC). Test articles (6 μl) were applied to triplicate cultures and cultures were incubated at 37° C. for 72 hours. Untreated and OD alone served as negative controls. At the end of the incubation period, the growth media was collected and stored at −20° C. The tissues were cut in half: one half was placed in 10% NBF for histology, and the other half was placed in RNAlater™ solution for RT-qPCR. RNA was isolated and concentrations were determined using a NanoDrop spectrophotometer. In addition to using the same amount of RNA for each sample, data was normalized to internal GAPDH mRNA levels and is expressed as relative quantification (RQ) to untreated controls. RNA extracts from each replicate were amplified using RT-qPCR. The relative gene expression of five biomarkers was determined: Keratin 10, Keratin 19, Filaggrin, Keratin 4, and Keratin 13.
(Real-time PCR tracks product formation cycle by cycle.)

Series [2] in a line: Metabolism in the presence of human skin microsomes. Conditions: human skin microsomes; paraoxon 0, 10 or 100 μM.
Description: Hepatic microsomal reactions were carried out in microcentrifuge tubes in the following manner. Human liver microsomes (0.5 or 1.0 mg/ml protein), Test Article (1 or 10 μM), paraoxon (0, 10 or 100 μM), NADPH regenerating system (10 mM glucose-6-phosphate, 1 unit/ml glucose-6-phosphate dehydrogenase, 1 mM NADP^+), magnesium chloride (5 mM) in 0.1 M potassium phosphate buffer, pH 7.4 were incubated at 37° C. in a shaking water bath. Reactions were initiated with the addition of substrate with the exception of the zero-time incubations. The total reaction volume was 0.2 ml. The reactions were incubated for 15, 30, 45 or 60 minutes, terminated with 0.2 ml ice-cold acetonitrile and then placed on ice. For zero-time incubations, ice cold acetonitrile was added to the mixture containing microsomes, along with NADPH regenerating system, magnesium chloride in phosphate buffer and the Test Article. Each time point was carried out in triplicate.
Five time points were chosen, but because of the limitation of human skin microsome supply, each one was carried out in duplicate. Skin microsomal reactions were carried out as described above for hepatic microsomal reactions with the following two exceptions. Firstly, the total reaction volume was 0.1 mL. Secondly, incubations were terminated with 0.1 mL acetonitrile.
Setting [3] is: read-out: K4 Fold Change vs Untreated/OD controls (upregulation).
The mark [4] stands for this setting: read-out: K13 Fold Change vs Untreated/OD controls (upregulation).
The mark [5] stands for this setting: read-out: K19 Fold Change vs Untreated/OD controls (upregulation).
[6] abbreviates: human liver microsomes, paraoxon 0, 10 or 100 μM.

These results are taken from US9062037B2, “Tazarotene derivatives” (Stiefel Laboratories, Inc., priority 2009, dated 2015).

Like-named read-outs stand apart in the source and are kept apart here.

On to `CCOc1ccc2ccc(=O)oc2c1` [7-ethoxycoumarin], for which, where the note is “initial concentration 10 μM, 0 or 30 minutes”, the “metabolized by human liver microsomes (positive control)” value was “as expected”.

With `CCOC(=O)c1ccc(C#Cc2ccc3c(c2)C(C)(C)C[C@@H](OC(=O)c2ccccc2)S3)nc1` [Compound 5, (S)-6-(2-(2-benzoyloxy-4,4-dimethylthiochroman-6-yl)ethynyl) nicotinic acid, ethyl ester], the fold induction at 2830 µM in series [1] (setting [3]) stood at 45; in series [1] (setting [4]) it was 7; in series [1] (setting [5]) it was 8.

For the compound `CCOC(=O)c1ccc(C#Cc2ccc3c(c2)C(C)(C)C[C@H](OC(=O)c2ccccc2)S3)nc1` [Compound 6, (R)-6-(2-(2-benzoyloxy-4,4-dimethylthiochroman-6-yl)ethynyl)nicotinic acid, ethyl ester], the fold induction at 2830 µM in series [1] (setting [3]) is 20; in series [1] (setting [4]), 7; in series [1] (setting [5]), 8.

For `CCOC(=O)c1ccc(C#Cc2ccc3c(c2)C(C)(C)C[C@@H](OC(=O)c2cccnc2)S3)nc1` [Compound 8, (S)-6-[4,4-dimethyl-2-(pyridine-3-carbonyloxy)thiochroman-6-ylethynyl]nicotinic acid ethyl ester], the fold induction at 2830 µM was 35 in series [1] (setting [3]), 7 in series [1] (setting [4]) and 18 in series [1] (setting [5]).

As for `CCOC(=O)c1ccc(C#Cc2ccc3c(c2)C(C)(C)C[C@H](OC(=O)c2cccnc2)S3)nc1` [Compound 9, (R)-6-[4,4-dimethyl-2-(pyridine-3-carbonyloxy)thiochroman-6-ylethynyl]nicotinic acid ethyl ester], the fold induction at 2830 µM worked out at 32 in series [1] (setting [3]), 5 in series [1] (setting [4]) and 17 in series [1] (setting [5]).

For the compound `CC1(C)CC(O)Sc2ccc(C#Cc3ccc(C(=O)O)cn3)cc21` (stereo not drawn) [Compound 10, 6-((2-hydroxy-4,4-dimethylthiochroman-6-yl)ethynyl)nicotinic acid], the fold induction at 2830 µM stood at 65 in series [1] (setting [3]), 11 in series [1] (setting [4]) and 25 in series [1] (setting [5]).

As to `CC1(C)CC(=O)Sc2ccc(C#Cc3ccc(C(=O)O)cn3)cc21` [Compound 11, 6-((4,4-dimethyl-2-oxothiochroman-6-yl)ethynyl)nicotinic acid], the fold induction at 2830 µM in series [1] (setting [3]) worked out at 52; in series [1] (setting [4]), 20; in series [1] (setting [5]), 21.

With `CCOC(=O)c1ccc(C#Cc2ccc3c(c2)C(C)(C)CC(=O)S3)nc1` [Compound 12, ethyl 6-((4,4-dimethyl-2-oxothiochroman-6-yl)ethynyl)nicotinate], the fold induction at 2830 µM in series [1] (setting [3]) is 103 to 180; in series [1] (setting [4]) it was 15; in series [1] (setting [5]), 27.

Turning to `CCCCCCCCCCCCCCCC(=O)OC1CC(C)(C)c2cc(C#Cc3ccc(C(=O)OCC)cn3)ccc2S1` (stereo not drawn) [Compound 13], the fold induction at 2830 µM in series [1] (setting [3]) amounted to 38; in series [1] (setting [4]) it was 6; in series [1] (setting [5]) it was 4.

Regarding `CCOC(=O)c1ccc(C#Cc2ccc3c(c2)C(C)(C)CC(O)S3)nc1` (stereo not drawn) [Compound 14, Ethyl 6-[(2-hydroxy-4,4-dimethyl-3,4-dihydro-2-thiochromen-6-yl)ethynyl]pyridine-3-carboxylate], the figures for the fold induction at 2830 µM in series [1] (setting [3]), in series [1] (setting [4]) and in series [1] (setting [5]) were 87, 20 and 29, respectively.

On to `CCOC(=O)c1ccc(C#Cc2ccc3c(c2)C(C)(C)CC(OC(=O)CO)S3)nc1` (stereo not drawn) [Compound 15, 6-[2-(2-Hydroxy-acetoxy)-4,4-dimethyl-thiochroman-6-ylethynyl]-nicotinic acid ethyl ester], for which the fold induction at 2830 µM in series [1] (setting [3]) is 64; in series [1] (setting [4]), 12; in series [1] (setting [5]) it was 33 to 43.

As for `CCOC(=O)c1ccc(C#Cc2ccc3c(c2)C(C)(C)CC(OC(=O)COC)S3)nc1` (stereo not drawn) [Compound 16], the fold induction at 2830 µM in series [1] (setting [3]) was found to be 69; in series [1] (setting [4]), 9; in series [1] (setting [5]), 20.

On to `CCOC(=O)c1ccc(C#Cc2ccc3c(c2)C(C)(C)CC(OC(C)=O)S3)nc1` (stereo not drawn) [Compound 17], for which the fold induction at 2830 µM in series [1] (setting [3]) was 103 to 180; in series [1] (setting [4]), 15; in series [1] (setting [5]), 24.

Take `CCCC(=O)OC1CC(C)(C)c2cc(C#Cc3ccc(C(=O)OCC)cn3)ccc2S1` (stereo not drawn) [Compound 18, Ethyl 6-[(2-n-butyryloxyl-4,4-dimethyl-3,4-dihydro-2-thiochromen-6-yl)ethynyl]pyridine-3-carboxylate]: the fold induction at 2830 µM was determined as 60 in series [1] (setting [3]), 9 in series [1] (setting [4]) and 22 in series [1] (setting [5]).

Take `CCCCCCCCCCCC(=O)OC1CC(C)(C)c2cc(C#Cc3ccc(C(=O)OCC)cn3)ccc2S1` (stereo not drawn) [Compound 19]: the fold induction at 2830 µM is 19 in series [1] (setting [3]), 2 in series [1] (setting [4]) and 2 in series [1] (setting [5]).

On to `CCOC(=O)c1ccc(C#Cc2ccc3c(c2)C(C)(C)CC(OC(=O)C(C)C)S3)nc1` (stereo not drawn) [Compound 20, Ethyl 6-[(2-isobutyryloxy-4,4-dimethyl-3,4-dihydro-2-thiochromen-6-yl)ethynyl]pyridine-3-carboxylate], for which the fold induction at 2830 µM in series [1] (setting [3]) is 22; in series [1] (setting [4]), 6; in series [1] (setting [5]), 15.

In the case of `CC/C=C\C/C=C\C/C=C\CCCCCCC(=O)OC1CC(C)(C)c2cc(C#Cc3ccc(C(=O)OCC)cn3)ccc2S1` (stereo not drawn) [Compound 22], the fold induction at 2830 µM in series [1] (setting [3]) came out at 38; in series [1] (setting [4]), 10; in series [1] (setting [5]) it was 12.

With `CCOC(=O)c1ccc(C#Cc2ccc3c(c2)C(C)(C)CC(OC(=O)C2CCN(C)CC2)S3)nc1` (stereo not drawn) [Compound 23], the fold induction at 2830 µM in series [1] (setting [3]) was 73; in series [1] (setting [4]), 19; in series [1] (setting [5]) it was 33 to 43.

Turning to `CCOC(=O)c1ccc(C#Cc2ccc3c(c2)C(C)(C)CC(OC(=O)CC)S3)nc1` (stereo not drawn) [Compound 24], the fold induction at 2830 µM in series [1] (setting [3]) was 74; in series [1] (setting [4]) it was 23; in series [1] (setting [5]) it was 33 to 43.

In the case of `CCOC(=O)c1ccc(C#Cc2ccc3c(c2)C(C)(C)CC(OC(=O)c2ccccc2O)S3)nc1` (stereo not drawn) [Compound 25, Ethyl 6-[(2-salicylicyl-4,4-dimethyl-3,4-dihydro-2-thiochromen-6-yl)ethynyl]pyridine-3-carboxylate], the fold induction at 2830 µM in series [1] (setting [3]) is 103 to 180; in series [1] (setting [4]), 17; in series [1] (setting [5]), 23.

On to `CCOC(=O)c1ccc(C#Cc2ccc3c(c2)C(C)(C)CC(OC(=O)C2CCOCC2)S3)nc1` (stereo not drawn) [Compound 26], for which the fold induction at 2830 µM is 90 in series [1] (setting [3]), 10 in series [1] (setting [4]) and 20 in series [1] (setting [5]).

Regarding `CCOC(=O)c1ccc(C#Cc2ccc3c(c2)C(C)(C)CC(OC(=O)CCCCC(=O)OC)S3)nc1` (stereo not drawn) [Compound 27, Ethyl 6-[(2-monomethyladopyl-4,4-dimethyl-3,4-dihydro-2-thiochromen-6-yl)ethynyl]pyridine-3-carboxylate], the fold induction at 2830 µM is 70 in series [1] (setting [3]), 19 in series [1] (setting [4]) and 33 to 43 in series [1] (setting [5]).

As for `CCOC(=O)c1ccc(C#Cc2ccc3c(c2)C(C)(C)CC(OC(=O)CCCCCCCC(=O)OC)S3)nc1` (stereo not drawn) [Compound 28], the fold induction at 2830 µM in series [1] (setting [3]) was 103 to 180; in series [1] (setting [4]), 18; in series [1] (setting [5]) it was 30.

`CCOC(=O)c1ccc(C#Cc2ccc3c(c2)C(C)(C)CC(OC(=O)[C@@H](N)C(C)C)S3)nc1` (stereo partly drawn) [Compound 29, 6-[2-((S)-2-Amino-3-methyl-butyryloxy)-4,4-dimethyl-thiochroman-6-ylethynyl]-nicotinic acid ethyl ester]: the fold induction at 2830 µM in series [1] (setting [3]) is 71; in series [1] (setting [4]), 13; in series [1] (setting [5]), 29.

Turning to `CCOP(=O)(OCC)Oc1ccc([N+](=O)[O-])cc1` [Paraoxon], under “CYP- and FMO-mediated reaction”, the “inhibition of the metabolism of tazarotenic acid to tazarotenic acid sulfoxide” value is listed as “did not inhibit”. Under setting [6], the “inhibition of tazarotene benzoate metabolism to hydroxy tazarotenic acid” value is on record as “inhibited”, the “inhibition of tazarotene metabolism to tazarotenic acid” value is “inhibited” and the “inhibition of tazarotene sulfoxide metabolism to tazarotenic acid sulfoxide” value is “inhibited”. For the same compound, the “inhibition of tazarotene benzoate metabolism to hydroxy tazarotenic acid” value in series [2] is recorded as “inhibited”.
